Consider 45 compounds from patent US20040006061A1, “Alkoxybenzylamine” (priority 2001, published 2004).

Test [1] deals with Escherichia coli NCTC 8196. The test can be described thus: Determination of the Minimum Inhibitory Concentration (MIC value) in microtitre plates, Escherichia coli. Type of test: cell-based. The following applies: for MIC: Escherichia coli, NCTC8196, 48 h, read-out: MIC [μg/ml] EC. How it is done: (§1) Determination of the Minimum Inhibitory Concentration (MIC Value) in Microtitre Plates
Casein-soybean flour-peptone broth for preparation of pre-cultures of test bacteria and yeast. […]
Escherichia coli NCTC 8196
(§2) The test substances are pre-dissolved in dimethyl sulfoxide (DMSO) and tested in a dilution series of 1:2.
(§3) The bacteria are cultured overnight in CASO broth and washed off using 10 ml of 0.85% sodium chloride solution (+0.1% Triton X-100).
(§4) All the test organisms are adjusted to an organism count of 1-5×10^6 CFU/ml using 0.85% sodium chloride solution.
(§5) The test substances are pre-pipetted into microtitre plates in amounts of 8 μl per well.
(§6) Pre-diluted test organism suspensions are diluted 1:100 in CASO broth.
(§7) The test batches are incubated for 48 hours at 37° C.
(§8) After incubation, the growth is determined on the basis of the turbidity of the test batches (optical density) at 620 nm in a microplate reader.
(§9) The minimum inhibitory concentration (MIC value) is the concentration of substance at which there is found (compared to the growth of the control) an appreciable inhibition of growth (≦20% growth) of the test organisms.
(§10) One microtitre plate is used for each test organism and substance concentration.
(§11) All the substances are tested in duplicate.

In test [2] the test system is Staphylococcus hominis DSM 20328. The test can be described thus: Determination of the Minimum Inhibitory Concentration (MIC value) in microtitre plates, Staphylococcus hominis. Format: cell-based. The following applies: Staphylococcus hominis, DSM20328, 48 h, read-out: MIC [μg/ml] SH. The procedure: as §1
Casein-soybean flour-peptone broth for preparation of pre-cultures of test bacteria and yeast.
Staphylococcus hominis DSM 20328 […]
as §2, §3, §4, §5, §6, §7, §8, §9, §10, §11

[3] abbreviates: Escherichia coli NCTC 8196, CASO broth, 48 hours at 37° C., MIC = ≦20% growth (optical density at 620 nm).
Setting [4] is: Staphylococcus hominis DSM 20328, CASO broth, 48 hours at 37° C., MIC = ≦20% growth (optical density at 620 nm).

Each structure is given as a SMILES string. Where two headings read alike, the source gives them in different places. A value given as a limit tells only on which side of the number the result lay.

With `CCCCCCCCCCCCOc1ccc(CN(C)CCCCCC)cc1` [Compound of formula (80)], the MIC is more than 120 µg/mL in test [1] (setting [3]) and 60 µg/mL in test [2] (setting [4]).
As to `CCCCCCCCCCCCOc1ccc(CN(C)C)cc1OC` [Compound of formula (20)], the MIC in test [1] (setting [3]) amounted to 15 µg/mL; in test [2] (setting [4]) it was 7.5 µg/mL.
The like results for `CCCCCCCCOc1ccc(CN(CC)CC)cc1OC` [Compound of formula (45)] were, in that order, 120 µg/mL and 120 µg/mL.
For the compound `CCCOc1ccc(CN(CC)CC)cc1OC` [Compound of formula (61)], the MIC in test [1] (setting [3]) and in test [2] (setting [4]) was more than 120 µg/mL throughout.
On to `CCCCCCOc1ccc(CN2CCN(CC)CC2)cc1OCCCCCC` [Compound of formula (97)], for which the MIC in test [1] (setting [3]) was 120 µg/mL; in test [2] (setting [4]) it was 30 µg/mL.
Turning to `CCCCCCCCCCCCOc1ccc(CN2CCN(C(C)=O)CC2)cc1` [Compound of formula (78)], the MIC in test [1] (setting [3]) and in test [2] (setting [4]) was more than 120 µg/mL each time.
On to `CCCCCCCCCCCCOc1ccc(CN(C)Cc2ccccc2)cc1` [Compound of formula (79)], for which the MIC in test [1] (setting [3]) was more than 120 µg/mL; in test [2] (setting [4]) it was 60 µg/mL.
Take `CCCCCCOc1ccc(CN2CCN(C(C)=O)CC2)cc1OCCCCCC` [Compound of formula (94)]: the MIC in test [1] (setting [3]) and in test [2] (setting [4]) was more than 120 µg/mL in each case.
For the compound `CCCCCCCCCCCCOc1ccc(CN2CCOCC2)cc1OC` [Compound of formula (8)], the MIC in test [1] (setting [3]) and in test [2] (setting [4]) was more than 120 µg/mL each time.
On to `CCCCCCOc1ccc(CN2CCCCC2)cc1OC` [Compound of formula (5)], for which the MIC in test [1] (setting [3]) and in test [2] (setting [4]) was more than 120 µg/mL in each case.
On to `CCCCCCCCOc1ccc(CN2CCOCC2)cc1OC` [Compound of formula (40)], for which the MIC in test [1] (setting [3]) and in test [2] (setting [4]) was more than 120 µg/mL throughout.
In the case of `CCCCCCOc1ccc(CN(C(C)C)C(C)C)cc1OC` [Compound of formula (27)], the MIC in test [1] (setting [3]) and in test [2] (setting [4]) was more than 120 µg/mL throughout.
In the case of `CCCCCCOc1ccc(CN2CCCCC2)cc1OCCCCCC` [Compound of formula (102)], the values for the MIC in test [1] (setting [3]) and in test [2] (setting [4]) were more than 120 µg/mL and 7.5 µg/mL, respectively.
In the case of `CCCCCCOc1ccc(CN2CCN(C(C)=O)CC2)cc1OC` [Compound of formula (30)], the MIC in test [1] (setting [3]) and in test [2] (setting [4]) was more than 120 µg/mL each time.
As for `CCCOc1ccc(CN(C)C)cc1OC` [Compound of formula (68)], the MIC in test [1] (setting [3]) and in test [2] (setting [4]) was more than 120 µg/mL throughout.
As to `CCCOc1ccc(CN2CCCC2)cc1OC` [Compound of formula (66)], the MIC in test [1] (setting [3]) and in test [2] (setting [4]) was more than 120 µg/mL in each case.
In the case of `CCCCCCOc1ccc(CN2CCCCCC2)cc1OCCCCCC` [Compound of formula (90)], the MIC in test [1] (setting [3]) is more than 120 µg/mL; in test [2] (setting [4]) it was 7.5 µg/mL.
The like results for `CCCCCCCCCCCCOc1ccc(CN2CCN(c3cccc(OC)c3)CC2)cc1OC` [Compound of formula (22)] were, in that order, more than 120 µg/mL and more than 120 µg/mL.
As to `CCCCCCCCOc1ccc(CN2CCNCC2)cc1OC` [Compound of formula (53)], the MIC in test [1] and in test [2] was more than 120 µg/mL in each case.
As to `CCCCCCOc1ccc(CN2CCNCC2)cc1OCCCCCC` [Compound of formula (101)], the MIC in test [1] (setting [3]) and in test [2] (setting [4]) was more than 120 µg/mL throughout.
`CCCCCCCCCCCCN(C)Cc1ccc(OCCCCCC)c(OCCCCCC)c1` [Compound of formula (99)]: the MIC in test [1] (setting [3]) and in test [2] (setting [4]) was more than 120 µg/mL throughout.
As to `CCCOc1ccc(CN(C)Cc2ccccc2)cc1OC` [Compound of formula (63)], the MIC in test [1] (setting [3]) and in test [2] (setting [4]) was more than 120 µg/mL in each case.
For the compound `CCCCCCOc1ccc(CN(CC)CC)cc1OC` [Compound of formula (29)], the MIC in test [1] (setting [3]) and in test [2] (setting [4]) was more than 120 µg/mL throughout.
Take `CCCCCCCCCCCCOc1ccc(CN2CCN(CC)CC2)cc1OC` [Compound of formula (17)]: the MIC is more than 120 µg/mL in test [1] (setting [3]) and 7.5 µg/mL in test [2] (setting [4]).
Consider `CCCCCCOc1ccc(CN2CCCC2)cc1OC` [Compound of formula (6)], for which the MIC in test [1] (setting [3]) and in test [2] (setting [4]) was more than 120 µg/mL throughout.
With `CCCCCCOc1ccc(CN2CCN(C)CC2)cc1OCCCCCC` [Compound of formula (92)], the MIC in test [1] (setting [3]) is 60 µg/mL; in test [2] (setting [4]), 15 µg/mL.
The like results for `CCCCCCCCCCCCOc1ccc(CN(CC)CC)cc1OC` [Compound of formula (13)] were, in that order, more than 120 µg/mL and 3.75 µg/mL.
In the case of `CCCCCCOc1ccc(CN(C)CCc2ccccn2)cc1OC` [Compound of formula (23)], the MIC is more than 120 µg/mL in test [1] (setting [3]) and 60 µg/mL in test [2] (setting [4]).
Take `CCCCCCOc1ccc(CN(C)CCCCCC)cc1OCCCCCC` [Compound of formula (96)]: the results for the MIC in test [1] (setting [3]) and in test [2] (setting [4]) were more than 120 µg/mL and 120 µg/mL, respectively.
The like results for `CCCCCCOc1ccc(CN(C)CCc2ccccn2)cc1OCCCCCC` [Compound of formula (87)] were, in that order, more than 120 µg/mL and 30 µg/mL.
The corresponding values for `CCCCCCCCOc1ccc(CN(C)Cc2ccccc2)cc1OC` [Compound of formula (47)] are more than 120 µg/mL and more than 120 µg/mL.
Turning to `CCCCCCCCOc1ccc(CN2CCCCCC2)cc1OC` [Compound of formula (42)], the MIC in test [1] (setting [3]) and in test [2] (setting [4]) was 15 µg/mL each time.
On to `CCCCCCCCOc1ccc(CN2CCN(C(C)=O)CC2)cc1OC` [Compound of formula (46)], for which the MIC was 120 µg/mL in test [1] (setting [3]) and more than 120 µg/mL in test [2] (setting [4]).
The corresponding values for `CCCCCCCCCCCCOc1ccc(CN(C)CCCCCC)cc1OC` [Compound of formula (16)] are more than 120 µg/mL and 120 µg/mL.
As for `CCCCCCCCCCCCOc1ccc(CN(C)CCc2ccccn2)cc1` [Compound of formula (71)], the MIC in test [1] (setting [3]) and in test [2] (setting [4]) was more than 120 µg/mL each time.
Regarding `CCCCCCCCCCCCN(C)Cc1ccc(OCCC)c(OC)c1` [Compound of formula (67)], the MIC in test [1] (setting [3]) is more than 120 µg/mL; in test [2] (setting [4]), 60 µg/mL.
As to `CCCCCCCCCCCCOc1ccc(CN2CCNCC2)cc1` [Compound of formula (85)], the MIC in test [1] (setting [3]) and in test [2] (setting [4]) was more than 120 µg/mL in each case.
`CCCCCCCCCCCCOc1ccc(CN2CCCCC2)cc1OC` [Compound of formula (3)]: the MIC is more than 120 µg/mL in test [1] (setting [3]) and 3.75 µg/mL in test [2] (setting [4]).
For `CCCCCCOc1ccc(CN2CCOCC2)cc1OC` [Compound of formula (24)], the MIC in test [1] (setting [3]) and in test [2] (setting [4]) was more than 120 µg/mL throughout.
On to `CCCCCCCCCCCCOc1ccc(CN(C)CC)cc1` [Compound of formula (77)], for which the MIC in test [1] (setting [3]) was more than 120 µg/mL; in test [2] (setting [4]), 15 µg/mL.
Regarding `CCCCCCOc1ccc(CN(C)C)cc1OC` [Compound of formula (36)], the MIC in test [1] (setting [3]) and in test [2] (setting [4]) was more than 120 µg/mL in each case.
For the compound `CCCCCCOc1ccc(CN(C)Cc2ccccc2)cc1OC` [Compound of formula (31)], the MIC in test [1] (setting [3]) and in test [2] (setting [4]) was more than 120 µg/mL throughout.
For `CCCCCCOc1ccc(CN(C)Cc2ccccc2)cc1OCCCCCC` [Compound of formula (95)], the MIC in test [1] (setting [3]) and in test [2] (setting [4]) was more than 120 µg/mL each time.
On to `CCCCCCOc1ccc(CN(C)CCCCCC)cc1OC` [Compound of formula (32)], for which the MIC in test [1] (setting [3]) stood at 7.5 µg/mL; in test [2] (setting [4]) it was 60 µg/mL.
`CCCCCCCCCCCCOc1ccc(CN2CCCC2)cc1OC` [Compound of formula (4)]: the “MIC [μg/ml] EC” value in test [1] (setting [3]) amounted to 30 µg/mL.
